Consider 2 compounds from ChEMBL document CHEMBL1255411, “Tat pathway-mediated translocation of the sec pathway substrate protein MexA, an inner membrane component of the MexAB-OprM xenobiotic extrusion pump in Pseudomonas aeruginosa” (2010).

Common to all, as to format: functional
Assay [1] has as its system Pseudomonas aeruginosa. Kind of assay: Antibacterial activity against tatC deficient Pseudomonas aeruginosa TNP080 transformant harboring pMEXA1 carrying wild type mexA gene.
Assay [2] relates to Pseudomonas aeruginosa. Kind of assay: Antibacterial activity against tatC deficient Pseudomonas aeruginosa TNP080.
Assay [3] relates to Pseudomonas aeruginosa. Kind of assay: Antibacterial activity against mexA deficient Pseudomonas aeruginosa TNP070 transformant harboring pPlcMexA carrying chimeric mexA gene with plcH signal sequence.
Assay [4] relates to Pseudomonas aeruginosa. Kind of assay: Antibacterial activity against tatC deficient Pseudomonas aeruginosa TNP080 transformant harboring pTatPlcMexA carrying entire tatC gene and the chimeric mexA gene.
For assay [5], the system named is Pseudomonas aeruginosa. Kind of assay: Antibacterial activity against mexA deficient Pseudomonas aeruginosa TNP070 transformant harboring pMEXA1 carrying wild type mexA gene.
Assay [6] has as its system Pseudomonas aeruginosa. Kind of assay: Antibacterial activity against tatC deficient Pseudomonas aeruginosa TNP080 transformant harboring pPlcMexA carrying chimeric mexA gene with plcH signal sequence.
Assay [7] deals with Pseudomonas aeruginosa. Kind of assay: Antibacterial activity against mexA deficient Pseudomonas aeruginosa TNP070.
In assay [8] the test system is Pseudomonas aeruginosa. Kind of assay: Antibacterial activity against Pseudomonas aeruginosa PAO4290 harboring leu-10 argF10 aph-9004 FP(-).

By MIC is commonly meant the smallest concentration in the dilution series that meets the test's criterion for growth inhibition. Low values mean greater potency, high ones weaker potency.

≈ marks a conversion by molar mass, not a printed value.

With `C[C@H]1[C@H](NC(=O)/C(=N\OC(C)(C)C(=O)O)c2csc(N)n2)C(=O)N1S(=O)(=O)O` [AZTREONAM], the MIC in the assay on Pseudomonas aeruginosa [1] was 2 µg/mL (≈ 4.59 µM); against Pseudomonas aeruginosa [2] it was 0.13 µg/mL (≈ 0.299 µM); in the assay with Pseudomonas aeruginosa [3], 2 µg/mL (≈ 4.59 µM); in the assay on Pseudomonas aeruginosa [4], 2 µg/mL (≈ 4.59 µM); in the assay with Pseudomonas aeruginosa [5], 2 µg/mL (≈ 4.59 µM); in the assay on Pseudomonas aeruginosa [6] it was 0.25 µg/mL (≈ 0.574 µM). In addition, the minimal inhibitory concentration (MIC) in the assay with Pseudomonas aeruginosa [7] is 0.25 µg/mL (≈ 0.574 µM); against Pseudomonas aeruginosa [8], 4 µg/mL (≈ 9.19 µM).

With `O=C(N[C@H](CO)[C@H](O)c1ccc([N+](=O)[O-])cc1)C(Cl)Cl` [CHLORAMPHENICOL], the minimal inhibitory concentration (MIC) turned out to be 32 µg/mL (≈ 99 µM) in the assay with Pseudomonas aeruginosa [1]; 4 µg/mL (≈ 12.4 µM) in the assay on Pseudomonas aeruginosa [2]; 32 µg/mL (≈ 99 µM) in the assay on Pseudomonas aeruginosa [3]; 32 µg/mL (≈ 99 µM) against Pseudomonas aeruginosa [4]; 32 µg/mL (≈ 99 µM) with Pseudomonas aeruginosa [5]; 4 µg/mL (≈ 12.4 µM) with Pseudomonas aeruginosa [6]. Moreover, the MIC stood at 8 µg/mL (≈ 24.8 µM) against Pseudomonas aeruginosa [7] and 64 µg/mL (≈ 198 µM) in the assay with Pseudomonas aeruginosa [8].
